Assay results published in ChEMBL document CHEMBL3856189, “Synthesis of novel diterpenoid analogs with in-vivo antitumor activity” (Eur J Med Chem, 2016).
Active and inactive are the calls of the source. No cut-off for these calls is given here.

What was measured:
[1] = system: T47D; experiment: Induction of apoptosis in human T47D cells assessed as early apoptotic cells at 20 uM after 48 hrs by Annexin V-FITC/propidium iodide staining based flow cytometry (reference value: 1.49 %); assay type: functional
[2] = Antiproliferative activity against human HL60 cells after 96 hrs by SRB assay; assay type: functional, cell-based; settings: HL-60, 96 h
[3] = Antiproliferative activity against human HCT116 cells after 96 hrs by SRB assay; assay type: functional, cell-based; settings: HCT-116, 96 h
[4] = system: Mus musculus; experiment: Toxicity in nude mouse xenografted with human T47D cells assessed as diarrhoea at 20 to 40 mg/kg/day, ip administered daily for 18 days; assay type: organism-based; settings: in vivo, 432 h
[5] = Antiproliferative activity against HAF cells after 96 hrs by SRB assay; assay type: cell-based; settings: Homo sapiens
[6] = (§1) Inhibition of colony formation in human T47D cells after 7 days by crystal violet staining based assay; assay type: functional, cell-based; settings: 168 h
[7] = system: T47D; experiment: as §1; assay type: functional, cell-based
[8] = system: MCF7; experiment: Selectivity index, ratio of IC50 for HAF cells to IC50 for human MCF7 cells; assay type: functional
[9] = system: T47D; experiment: Induction of apoptosis in human T47D cells assessed as early apoptotic cells at 5 uM after 48 hrs by Annexin V-FITC/propidium iodide staining based flow cytometry (reference value: 1.49 %); assay type: functional
[10] = system: Mus musculus; experiment: Toxicity in nude mouse xenografted with human T47D cells assessed as organ damage at 20 to 40 mg/kg/day, ip administered daily for 18 days; assay type: organism-based; settings: in vivo, 432 h
[11] = system: Mus musculus; experiment: Toxicity in nude mouse xenografted with human T47D cells assessed as incidence of impaired posture or movement at 20 to 40 mg/kg/day, ip administered daily for 18 days measured every 3 days during compound dosing; assay type: organism-based; settings: in vivo
[12] = Antitumor activity against human T47D cells xenografted in nude mouse assessed as tumor volume at 40 mg/kg/day, ip administered daily for 18 days measured every 3 days during compound dosing (reference value: 1220 +/- 127 mm3); assay type: functional
[13] = system: PC-3; experiment: Selectivity index, ratio of IC50 for HAF cells to IC50 for human PC3 cells; assay type: functional
[14] = Antiproliferative activity against human PC3 cells after 96 hrs by SRB assay; assay type: functional, cell-based; settings: PC-3, 96 h
[15] = system: HCT-116; experiment: Selectivity index, ratio of IC50 for HAF cells to IC50 for human HCT116 cells; assay type: functional
[16] = system: T47D; experiment: Induction of apoptosis in human T47D cells assessed as late apoptotic cells at 10 uM after 48 hrs by Annexin V-FITC/propidium iodide staining based flow cytometry (reference value: 2.72 %); assay type: functional
[17] = system: Mus musculus; experiment: Toxicity in nude mouse xenografted with human T47D cells assessed as effect on food and water withdrawal at 20 to 40 mg/kg/day, ip administered daily for 18 days measured every 3 days during compound dosing; assay type: organism-based; settings: in vivo
[18] = Antiproliferative activity against human DU145 cells after 96 hrs by SRB assay; assay type: functional, cell-based; settings: DU-145, 96 h
[19] = Antitumor activity against human T47D cells xenografted in nude mouse assessed as tumor weight at 40 mg/kg/day, ip administered daily for 18 days measured every 3 days during compound dosing (reference value: 882 +/- 149 mg); assay type: functional
[20] = system: Mus musculus; experiment: Toxicity in nude mouse xenografted with human T47D cells assessed as body weight loss at 20 to 40 mg/kg/day, ip administered daily for 18 days measured every 3 days during compound dosing; assay type: organism-based; settings: in vivo
[21] = system: T47D; experiment: Induction of apoptosis in human T47D cells assessed as early apoptotic cells at 10 uM after 48 hrs by Annexin V-FITC/propidium iodide staining based flow cytometry (reference value: 1.49 %); assay type: functional
[22] = Antitumor activity against human T47D cells xenografted in nude mouse assessed as tumor weight at 20 mg/kg/day, ip administered daily for 18 days measured every 3 days during compound dosing (reference value: 882 +/- 149 mg); assay type: functional
[23] = system: Mus musculus; experiment: Acute toxicity in nude mouse xenografted with human T47D cells assessed as effect on the survival rate at 20 to 40 mg/kg/day, ip administered daily for 18 days measured on day 18 post last dose; assay type: organism-based; settings: in vivo, 432 h
[24] = system: T47D; experiment: Induction of apoptosis in human T47D cells assessed as late apoptotic cells at 5 uM after 48 hrs by Annexin V-FITC/propidium iodide staining based flow cytometry (reference value: 2.72 %); assay type: functional
[25] = system: HL-60; experiment: Selectivity index, ratio of IC50 for HAF cells to IC50 for human HL60 cells; assay type: functional
[26] = system: T47D; experiment: Selectivity index, ratio of IC50 for HAF cells to IC50 for human T47D cells; assay type: functional
[27] = system: DU-145; experiment: Selectivity index, ratio of IC50 for HAF cells to IC50 for human DU145 cells; assay type: functional
[28] = Antitumor activity against human T47D cells xenografted in nude mouse assessed as tumor volume at 20 mg/kg/day, ip administered daily for 18 days measured every 3 days during compound dosing (reference value: 1220 +/- 127 mm3); assay type: functional
[29] = Selectivity index, ratio of IC50 for HAF cells to IC50 for human MDA-MB-231 cells; assay type: functional
[30] = (§2) Antimigratory activity in human T47D cells assessed as inhibition of cell migration after 12 hrs by crystal violet staining based transwell migration assay; assay type: functional
[31] = system: T47D; experiment: as §2; assay type: functional
[32] = system: T47D; experiment: Induction of apoptosis in human T47D cells assessed as late apoptotic cells at 20 uM after 48 hrs by Annexin V-FITC/propidium iodide staining based flow cytometry (reference value: 2.72 %); assay type: functional
[33] = system: T47D; experiment: Antimigratory activity in human T47D cells assessed as inhibition of cell migration at 20 uM after 12 hrs by crystal violet staining based transwell migration assay; assay type: functional
[34] = Antiproliferative activity against human HT-29 cells after 96 hrs by SRB assay; assay type: functional, cell-based; settings: HT-29, 96 h
[35] = Antiproliferative activity against human MCF7 cells after 96 hrs by SRB assay; assay type: functional, cell-based; settings: MCF7, 96 h
[36] = Antiproliferative activity against human T47D cells after 96 hrs by SRB assay; assay type: functional, cell-based
[37] = Potency index, ratio of podophyllotoxin IC50 to compound IC50 for human T47D cells; assay type: functional
[38] = Antiproliferative activity against human MDA-MB-231 cells after 96 hrs by SRB assay; assay type: functional, cell-based; settings: MDA-MB-231, 96 h
[39] = Selectivity index, ratio of IC50 for HAF cells to IC50 for human HT-29 cells; assay type: functional

`COc1cc2c(cc1C(=O)Nc1ccc(N(C)C)cc1)CC[C@H]1C(C)(C)[C@@H](O)CC[C@]21C` gave an Activity [1] of 24.58%, an IC50 [2] of 40 nM and an IC50 [3] of 570 nM. The Activity [4] was “Non-Toxic”, the IC50 [5] was 4540 nM and the EC50 [6] was 2.56 nM. The Activity [7] was “Dose-dependent effect”, the “Ratio IC50” value [8] was 13.8 and the Activity [9] was 4.31%. For the same compound, the Activity [10] was “Non-Toxic”, the Activity [11] was “Non-Toxic” and the Activity [12] was 401 mm3. For the same compound, the “Ratio IC50” value [13] was 13.8, the IC50 [14] was 540 nM and the “Ratio IC50” value [15] was 13.8. The Activity [16] was 1.09%, the Activity [17] was “Non-Toxic” and the IC50 [18] was 280 nM. For the same compound, the Activity [19] was 320 mg, the Activity [20] was “Non-Toxic” and the Activity [21] was 16.86%. The Activity [22] was 550 mg, the Activity [23] was “Non-Toxic” and the Activity [24] was 0.49%. For the same compound, the “Ratio IC50” value [25] was 13.8, the “Ratio IC50” value [26] was 13.8 and the “Ratio IC50” value [27] was 13.8. The Activity [28] was 654 mm3, the “Ratio IC50” value [29] was 13.8 and the EC50 [30] was 6420 nM. The Activity [31] was “Dose-dependent effect”, the Activity [32] was 1.29% and the Activity [33] was “Active”. It also gave an IC50 [34] of 590 nM, an IC50 [35] of 280 nM and an IC50 [36] of 10 nM. For the same compound, the “Ratio IC50” value [37] was 25, the IC50 [38] was 320 nM and the “Ratio IC50” value [39] was 13.8.
